Holding throughout (assay type): in vivo
In test [1] the test system is diet-induced obese (DIO) C57BL/6 mice. As to the kind of experiment: Hepatic steatosis in DIO mice, hematoxylin and eosin stained liver sections. To be noted: 125 mg/kg daily oral gavage, 10 weeks, vs water control. As to the method:
FIGS. 2A-2C are a series of photographs comparing hematoxylin and eosin stained liver sections of (A) diet-induced obese (DIO) C57BL/6 mice treated with water (control), (B) DIO mice treated with D-threo-1-(3′,4′-ethylenedioxy)phenyl-2-octanoylamino-3-pyrrolidino-1-propanol (Formula XI), and (C) lean mice treated with water (control). Mice were treated by daily oral gavage for 10 weeks and then sacrificed. In FIG. 1A, large vacuoles are visible throughout the parenchyma of the livers from the water-treated control mice. […] In FIG. 1C, the livers of normal, lean mice are devoid of any lipid-filled vacuoles.
Diet-induced obese (DIO) mice were first generated by placing C57BL/6 mice on a high-fat (45% of kcal) diet (D12451, Research Diets, Inc., New Brunswick, N.J.) for 8 weeks. Obese mice that had elevated glucose and insulin levels were selected and then treated with Formula XI by daily oral gavage (125 mg/kg) or with water as a control. After 10 weeks of treatment, the livers were harvested, sectioned, and stained with hematoxylin and eosin. Large vacuoles were visible throughout the parenchyma of the livers from the water control mice (FIGS. 2A-2C). These vacuoles contain neutral lipid by Oil Red O staining of the liver sections.

Test [2] has as its system DIO mice. Nature of the test: Markers of liver toxicity in blood of DIO mice. The following applies: 125 mg/kg/day oral gavage, 9 weeks, vs placebo. From the text:
FIGS. 5A-5D are a series of graphs comparing the levels of liver enzymes in DIO mice treated with water and DIO mice treated with Formula XI for 9 weeks. In FIG. 1A, lower levels of alanine aminotransferase (ALT) are observed in the drug-treated versus placebo-treated control animals. In FIG. 1B, lower levels of aspartate aminotransferase (AST) are observed in the drug-treated versus placebo-treated control animals. In FIG. 1C, lower levels of alkaline phosphatase are observed in the drug-treated versus placebo-treated control animals. In FIG. 1D, lower levels of γ-glutamyltransferase (GGT) are observed in the drug-treated versus placebo-treated control animals.
DIO mice were generated as described in Example 1. Mice were maintained on the high-fat diet for an additional 23 weeks (total time on diet 31 weeks). The mice were then treated with Formula XI by daily oral gavage (125 mg/kg/day). Blood was collected after 9 weeks of treatment and markers of liver toxicity were analyzed (IDEXX Laboratories, West Sacramento, Calif.). Lower levels of alanine aminotransferase (ALT), aspartate aminotransferase (AST), alkaline phosphatase, and gamma-glutamyltransferase (GGT) were found in the drug-treated versus placebo-treated control animals (FIGS. 5A-5D).

Test [3] concerns DIO mice. Nature of the test: Liver weight and body weight in DIO mice. Here is the method: FIG. 4 is a graph comparing the liver weight to body weight ratios of DIO mice treated with water, DIO mice treated with Formula XI, and lean mice treated with water after 9 and 17 weeks of treatment.
DIO mice were generated as described in Example 1. Mice were maintained on the high-fat diet for an additional 23 weeks (total time on diet 31 weeks). The mice were then treated with Formula XI by daily oral gavage (125 mg/kg/day). […] After 9 and 17 weeks of treatment, groups of animals were sacrificed and the livers dissected and weighed. In the DIO mice, the liver weight to body weight ratio was higher than in lean animals.

The subject of test [4] is DIO mice. Nature of the test: Liver triglyceride levels in DIO mice (hepatic lipid extracts). To be noted: 75 or 125 mg/kg daily oral gavage, 16 weeks, vs water control. As to the method: FIG. 3 is a graph comparing the mean levels of liver triglycerides in DIO mice treated with water, DIO mice treated with 75 mg/kg Formula XI, DIO mice treated with 125 mg/kg Formula XI, and lean mice treated with water. Mice were treated by daily oral gavage for 16 weeks and then euthanized. The livers were harvested and homogenized. Triglyceride levels were measured in hepatic lipid extracts.
DIO mice were generated as described in Example 1 and then treated with Formula XI by daily oral gavage at a dose of 75 or 125 mg/kg. Mice gavaged with water served as the control. After 16 weeks of treatment the livers were harvested and homogenized. The lipids were extracted with methanol:chloroform (4.3:3 v/v) and CaCI2. The extracted lipids were dried and dissolved in dimethylsulfoxide (DMSO). Triglycerides were measured using the Serum Triglyceride Determination kit (Sigma-Aldrich, St. Louis, Mo.) according to the protocol supplied by the manufacturer.

The subject of test [5] is ob/ob mice. As to the kind of experiment: Liver weight and body weight in ob/ob mice. Here is the method:
FIG. 6 is a graph comparing the liver weight to body weight ratios of ob/ob mice treated with water, ob/ob mice treated with Formula X, and lean mice treated with water after 6 weeks of treatment.
Male ob/ob mice were obtained from the Jackson Laboratories (Bar Harbor, Me.). These mice, being deficient in leptin, are hyperphagic and rapidly become obese. Severe hepatic steatosis is a characteristic of this model. Beginning at 7 weeks of age the mice were treated with Formula X by daily oral gavage (dosed 2× per day at 60 mg/kg/dose or 120 mg/kg/day). […] After 6 weeks of treatment, the animals were sacrificed and the livers dissected and weighed. In the placebo treated ob/ob mice, the liver weight to body weight ratio was higher than in lean animals (FIG. 6). […] N=6-8 mice per group.

The subject of test [6] is hepatic genes involved in lipogenesis, gluconeogenesis, inflammation, and fibrosis. As to the kind of experiment: Quantitative RT-PCR of hepatic genes in ob/ob mice. To be noted: 120 mg/kg/day oral gavage, 6 weeks, vs placebo. From the text:
FIGS. 7A-G are a series of graphs comparing the expression of hepatic genes involved in lipogenesis, gluconeogenesis, inflammation, and fibrosis in ob/ob mice treated with water, ob/ob mice treated with Formula X, and lean mice treated with water after 6 weeks of treatment. In FIG. 7A, lower levels of sterol regulatory element binding protein 1c (SREBP-1c) RNA are observed in the drug-treated versus placebo-treated control animals. In FIG. 7B, lower levels of acid citrate lyase 1 (ACL1) are observed in the drug-treated versus placebo-treated control animals. In FIG. 7C, lower levels of acetyl coenzyme A carboxylase 1 (ACC1) are observed in the drug-treated versus placebo-treated control animals. In FIG. 7D, lower levels of fatty acid synthase (FAS) are observed in the drug-treated versus placebo-treated control animals. In FIG. 7E, lower levels of tumor necrosis factor 1 alpha (TNF-α) are observed in the drug-treated versus placebo-treated control animals. In FIG. 7F, lower levels of glucose 6-phosphatase (G6P) are observed in the drug-treated versus placebo-treated control animals. In FIG. 7G, lower levels of procollagen type 1 (collagen) are observed in the drug-treated versus placebo-treated control animals. Thus, treatment with Formula X reduced the expression of genes involved in lipogenesis (SREBP-1c, ACL1, ACC1, FAS), gluconeogenesis (G6P), inflammation (TNF-α), and fibrosis.
The ob/ob mice, beginning at 7 weeks of age, were treated with Formula X by daily oral gavage (dosed 2× per day at 60 mg/kg/dose, or 120 mg/kg/day) for 6 weeks. The mice were sacrificed and total RNA was purified from the livers for quantitative RT-PCR (FIG. 7) of sterol regulatory element binding protein 1c (SREBP-1c), acid citrate lyase 1 (ACL1), acetyl coenzyme A carboxylase 1 (ACC1), fatty acid synthase (FAS), tumor necrosis factor 1 alpha (TNF-α), glucose 6-phosphatase (G6P), and procollagen type 1 (collagen).

Molecules are shown by their SMILES.

Regarding `CCCCCCCC(=O)NC(CN1CCCC1)C(O)c1ccc2c(c1)OCCO2` (stereo not shown) [Formula XI, 1-(1,4-benzodioxan-6-yl)-2-octanoylamino-3-pyrrolidino-1-propanol], in test [1], the “size of liver vacuoles” value is “appreciably smaller” and the “vacuoles visible in the livers (neutral lipid)” value is given as “significantly fewer vacuoles”. Further, in test [2], the “alanine aminotransferase (ALT) level” value is “Lower levels”, the alkaline phosphatase level entry is given as “Lower levels”, the “aspartate aminotransferase (AST) level” value is reported as “Lower levels” and the “gamma-glutamyltransferase (GGT) level” value is recorded as “Lower levels”. For the same molecule, the liver weights entry in test [3] (125 mg/kg/day oral gavage, 9 and 17 weeks) is on record as “significantly reduced”. The liver/body weight ratio entry in test [3] (125 mg/kg/day oral gavage, after 17 weeks, vs lean group) is “comparable to that of the lean group”. Also, the “liver weight to body weight ratio” value in test [3] (9 and 17 weeks of treatment, vs water) is recorded as “reduction”. Also, the “total triglyceride levels in the liver” value in test [4] was “dose-dependent reduction”.

As to `CCCCCCCCC(=O)NC(CN1CCCC1)C(O)c1ccc2c(c1)OCCO2` (stereo not shown) [Formula X, 1-(1,4-benzodioxan-6-yl)-2-nonanoylamino-3-pyrrolidino-1-propanol], in test [5] (120 mg/kg/day oral gavage, 6 weeks), the liver weights entry was “significantly reduced”. The “liver weight to body weight ratio” value in test [5] (6 weeks of treatment, vs water) is on record as “reduction”. In addition, in test [6], the “acetyl coenzyme A carboxylase 1 (ACC1) expression in liver” value is “lower levels”, the “acid citrate lyase 1 (ACL1) expression in liver” value is listed as “lower levels”, the “fatty acid synthase (FAS) expression in liver” value is listed as “lower levels” and the “glucose 6-phosphatase (G6P) expression in liver” value is recorded as “lower levels”. Further, in test [6], the “procollagen type 1 (collagen) expression in liver” value was “lower levels”, the “sterol regulatory element binding protein 1c (SREBP-1c) RNA level in liver” value is listed as “lower levels” and the “tumor necrosis factor 1 alpha (TNF-α) expression in liver” value was “lower levels”.

The values are drawn from US9556155B2, “Methods of treating fatty liver disease” (Genzyme Corporation, priority 2006, dated 2017).
